Measured values taken from patent US20070149505A1, “Method of Inhibiting Adhesion Formation” (SmithKline Beecham Corporation, priority 2001, published 2007).
“And” between values parts separate entries of the source, which are not always exact repeats. Equal entries are not always repeated.

Test system: uterine horn adhesions
Assay: rabbit uterine horn model of adhesion formation, oral + local (gel) COMPOUND 1 study
Assay type: in vivo, New Zealand White rabbits
Design: key to tenacity of the adhesions score (in parentheses), Right Horn, Bowel / tenacity of the adhesions score (in parentheses), Right Horn, Itself / tenacity of the adhesions score (in parentheses), Left Horn, Itself / tenacity of the adhesions score (in parentheses), Right Horn, Left / tenacity of the adhesions score (in parentheses), Left Horn, Bowel / tenacity of the adhesions score (in parentheses), Left Horn, Right / tenacity of the adhesions score (in parentheses), Right Horn, Bladder / tenacity of the adhesions score (in parentheses), Left Horn, Bladder: 0=No Adhesions; 1=mild, easily dissectable adhesions; 2=moderate adhesions; non-dissectable, does not tear the organ; 3=dense adhesions; non-dissectable, tears organ when removed; key to Overall score: overall adhesion score; 1 = mild, 1.5+ slightly tougher/more extensive
Details: for Overall, (group summary): group value ± spread, overall scores analyzed by rank order analysis
Experimental: The compounds of the instant invention are tested in known models of adhesion formation. These test systems include a rabbit sidewall model of adhesion formation as described in Rogers, et al., J. Invest. Surg., 9:388-391 (1996) and Rodgers, et al., […], 69(3):403-408 (1998); a rat model for adhesion formation as described in Harris, et al., Surgery, 117:663-669 (1995); and a rabbit animal model used to examine laparoscopic adhesion prevention. The rabbit uterine horn model may also be used to test the use of the instant vitronectin inhibiting compounds as inhibitors of adhesion formation. The experimental details and results using this model are detailed below.
Animals: New Zealand White rabbits, 2.4-2.7 kg, were purchased and quarantined for at least 2 days prior to use. The rabbits were randomized into appropriate control and treatment groups (see experimental designs below). The rabbits were housed on a 12:12 light:dark cycle with food and water available ad libitum. Each treatment group in all studies contained 8-10 animals.
Adhesion Model: The animals that received COMPOUND 1 or vehicle according to the experimental design (below). The rabbits that received placebo at surgery received two doses of vehicle orally. Rabbits were anesthetized with a mixture of 55 mg/kg ketamine hydrochloride and 5 mg/kg Rompum intramuscularly. Following preparation for sterile surgery, a midline laparotomy was performed. The uterine horns were exteriorized and traumatized by abrasion of the serosal surface with gauze until punctate bleeding developed. Ischemia of both uterine horns was induced by removal of the collateral blood supply. The remaining blood supply to the uterine horns was the ascending branches of the utero-vaginal arterial supply of the myometrium. The midline muscle and skin incision were closed.
After 7 or 14 days, the rabbits were terminated and adhesions were scored on a site and rabbit basis. Specifically, the percentage of the area of the horns adherent to various organs was determined. In addition, the tenacity of the adhesions was scored using the following system:
1=mild, easily dissectable adhesions
3=dense adhesions; non-dissectable, tears organ when removed
An overall score which took into account all of the above data was given to each rabbit. The following scoring system was used:
0.5+ Light, filmy pelvic adhesions involving only one organ, typically only 1 or 2 small adhesions
1.0+ Light, filmy adhesions, not extensive although slightly more extensive than 0.5
1.5+ Adhesions slightly tougher and more extensive than a 1 rating
2.0+ Tougher adhesions, a little more extensive, uterine horns usually have adhesions to both bowel and bladder
2.5+ Same as 2, except the adhesions are usually not filmy at any site and more extensive
3.0+ Tougher adhesions than 2, more extensive, both horns are attached to the bowel and bladder, some movement of the uterus possible
3.5+ Same as 3, but adhesions slightly more extensive and tougher
4.0+ Severe adhesions, both horns attached to the bowel and bladder, unable to move the uterus without tearing the adhesions
The rabbits were scored by two independent observers that were blinded to the prior treatment of the animal. If there was disagreement as to the score to be assigned to an individual animal, the higher score was given.
Statistical Analysis: The tenacity and overall scores were analyzed by rank order analysis and analysis of variance on the ranks. The percentage area of the horns involved to the various organs were compared by Student's t test.
[…] received two loading doses of 60 mg/kg COMPOUND 1 orally prior to surgery. At the end of the procedure, the animals received either nothing (surgical control), or 12 ml of placebo (10% CMC) or one of two doses (1 mg/ml or 0.1 mg/ml) of COMPOUND 1 at the site of surgical injury.
Oral+local study: Two loading doses of COMPOUND 1 (60 mg/kg, po) were administered orally prior to surgery. […]

[1] = 0.1 mg/ml COMPOUND 1, 2 Week Necropsy Time (Table 4), group mean ± spread
[2] = 0.1 mg/ml COMPOUND 1, 2 Week Necropsy Time (Table 4), individual rabbit
[3] = 0.1 mg/ml COMPOUND 1, 2 Week Necropsy Time (Table 4), individual rabbit, dash = site adhesion free
[4] = 0.1 mg/ml COMPOUND 1, 2 Week Necropsy Time (Table 8), group mean ± spread
[5] = 0.1 mg/ml COMPOUND 1, 2 Week Necropsy Time (Table 8), individual rabbit
[6] = 0.1 mg/ml COMPOUND 1, 2 Week Necropsy Time (Table 8), individual rabbit, dash = site adhesion free
[7] = 0.1 mg/ml COMPOUND 1, listed after Control/Placebo 1 Week

## O=C(O)C[C@@H]1Cc2ccc(OCCCNc3ccccn3)cc2CN(CC(F)(F)F)C1=O [COMPOUND 1, (S)-3-oxo-8-[3-(pyridin-2-ylamino)-1-propyloxy]-2-(2,2,2-trifluoroethyl)-2,3,4,5-tetrahydro-1H-2-benzazepine-4-acetic acid]
[1]
  % Horn Involved, Left Horn, Bladder: 7.0 ± 5.0%
  % Horn Involved, Left Horn, Bowel: 10.0 ± 4.2%
  % Horn Involved, Left Horn, Itself: 22.0 ± 3.6%
  % Horn Involved, Left Horn, Right: 21.0 ± 4.8%
  % Horn Involved, Right Horn, Bladder: 9.0 ± 4.8%
  % Horn Involved, Right Horn, Bowel: 10.0 ± 4.2%
  % Horn Involved, Right Horn, Itself: 16.0 ± 5.0%
  % Horn Involved, Right Horn, Left: 21.0 ± 4.8%
0.1 mg/ml COMPOUND 1, 2 Week Necropsy Time (Table 4)
  Overall, (group summary): 30.2 ± 6.2
[2]
  Overall score: 1.5 (3×) and 2.0 (2×) and 1.0 (2×) and 0.5 and 2.5 (2×)
  tenacity of the adhesions score (in parentheses), Left Horn, Bladder: 1
  tenacity of the adhesions score (in parentheses), Left Horn, Bowel: 1
  tenacity of the adhesions score (in parentheses), Left Horn, Itself: 1 (7×) and 2 (2×)
  tenacity of the adhesions score (in parentheses), Left Horn, Right: 1 (6×) and 2 (2×)
  tenacity of the adhesions score (in parentheses), Right Horn, Bladder: 1
  tenacity of the adhesions score (in parentheses), Right Horn, Bowel: 1
  tenacity of the adhesions score (in parentheses), Right Horn, Itself: 1 (4×) and 2 (2×)
  tenacity of the adhesions score (in parentheses), Right Horn, Left: 1 (6×) and 2 (2×)
[3]
  % Horn Involved, Left Horn, Bladder: 10% (2×) and 50%
  % Horn Involved, Left Horn, Bowel: 10% (2×) and 20% (2×) and 40%
  % Horn Involved, Left Horn, Itself: 40% and 30% (3×) and 20% (4×) and 10%
  % Horn Involved, Left Horn, Right: 30% (3×) and 40% (2×) and 20% and 10% (2×)
  % Horn Involved, Right Horn, Bladder: 10% (4×) and 50%
  % Horn Involved, Right Horn, Bowel: 10% (2×) and 20% (2×) and 40%
  % Horn Involved, Right Horn, Itself: 40% and 30% (3×) and 10% and 20%
  % Horn Involved, Right Horn, Left: 30% (3×) and 40% (2×) and 20% and 10% (2×)
[4]
  % Horn Involved, Left Horn, Bladder: 7.0 ± 3.4%
  % Horn Involved, Left Horn, Bowel: 15.0 ± 5.0%
  % Horn Involved, Left Horn, Itself: 23.0 ± 5.6%
  % Horn Involved, Left Horn, Right: 15.0 ± 4.8%
  % Horn Involved, Right Horn, Bladder: 7.0 ± 3.4%
  % Horn Involved, Right Horn, Bowel: 13.0 ± 4.7%
  % Horn Involved, Right Horn, Itself: 11.0 ± 3.5%
  % Horn Involved, Right Horn, Left: 15.0 ± 4.8%
0.1 mg/ml COMPOUND 1, 2 Week Necropsy Time (Table 8)
  Overall, (group summary): 22.0 ± 4.8
[5]
  Overall score: 2.0 (2×) and 1.5 (4×) and 1.0 (2×) and 0.5 (2×)
  tenacity of the adhesions score (in parentheses), Left Horn, Bladder: 1
  tenacity of the adhesions score (in parentheses), Left Horn, Bowel: 1
  tenacity of the adhesions score (in parentheses), Left Horn, Itself: 1
  tenacity of the adhesions score (in parentheses), Left Horn, Right: 1
  tenacity of the adhesions score (in parentheses), Right Horn, Bladder: 1
  tenacity of the adhesions score (in parentheses), Right Horn, Bowel: 1
  tenacity of the adhesions score (in parentheses), Right Horn, Itself: 1
  tenacity of the adhesions score (in parentheses), Right Horn, Left: 1
[6]
  % Horn Involved, Left Horn, Bladder: 30% and 10% (2×) and 20%
  % Horn Involved, Left Horn, Bowel: 40% and 30% (3×) and 10% (2×)
  % Horn Involved, Left Horn, Itself: 30% (4×) and 50% and 20% and 40%
  % Horn Involved, Left Horn, Right: 10% and 40% and 30% (2×) and 20% (2×)
  % Horn Involved, Right Horn, Bladder: 30% and 10% (2×) and 20%
  % Horn Involved, Right Horn, Bowel: 40% and 30% (2×) and 10% (3×)
  % Horn Involved, Right Horn, Itself: 30% (2×) and 10% (5×)
  % Horn Involved, Right Horn, Left: 10% and 40% and 30% (2×) and 20% (2×)
[7]
  # Sites Adhesion Free: 34
  % Sites Adhesion Free: 42.5%
0.1 mg/ml COMPOUND 1, listed after Control/Placebo 2 Weeks
  # Sites Adhesion Free: 31
